According to patent publication US10202390B2, “Heteroaryl substituted aminopyridine compounds” (BRISTOL-MYERS SQUIBB COMPANY, priority 2015, dated 2019):

Assays:
Human whole blood = test: IRAK4 Whole Blood Assay (TLR2 agonist lipoteichoic acid induced IL-6); format: cell-based; settings: 10 μg/mL lipoteichoic acid (TLR2 agonist), 5 hours, IL-6 levels
Procedure: Human whole blood containing the anti-coagulant ACD-A was plated in 384-well plate (25 μL/well) and incubated with compounds for 60 minutes at 37° C. in a 5% CO2 incubator. The blood was stimulated with a TLR2 agonist, 10 μg/mL final concentration of lipoteichoic acid (Invivogen, San Diego, Calif.) in 25 μL RPMI (Gibco) for 5 hours in a 5% CO2 incubator. At the end of the incubation, plates were centrifuged at 2300 rpm for 5 minutes. Supernatants were harvested and analyzed for IL-6 levels by Flow Cytometry beads assay (BD Biosciences, San Jose, Calif.).

[1] = Caco-2 Permeability Assay; format: in vitro ADME; settings: human, test compound 3 μM, 2 hours at 37° C., direction not given
Procedure: Caco-2 Permeability Assay Protocol
Thirteen to 27 days prior to assay, Caco-2 cells were seeded onto collagen-coated polycarbonate filter membranes in 24-well transwell plates at a density of 1.45×10^5 cells/cm^2, approximately 4.8×10^4 cells per well. The cells were grown in a culture medium consisting of DMEM supplemented with 10% fetal bovine serum, 10 mM HEPES, 1% nonessential amino acids, 2 mM L-glutamine, 100 U/mL penicillin-G, and 100 μg/mL streptomycin. The culture medium was replaced every 3 days and the cells were maintained at 37° C. in a 95% relative humidity and 5% CO2 atmosphere. The cells were evaluated for tight junction formation just prior to assay. The test compound was solubilized to 10 mM in 100% DMSO and diluted to 3 μM in assay buffer. Permeability studies were initiated by adding 200 μL assay buffer plus/minus compound to the apical transwell compartment and 600 μL assay buffer plus/minus compound to the basolateral compartment of the 24-well transwell low-binding cluster plate. For apical-to-basolateral (A to B) permeability (absorptive direction), buffer containing compound was placed in the apical compartment (donorwells), while buffer alone was placed in the corresponding basolateral compartments (receiverwells). For basolateral-to-apical (B to A) permeability (secretive direction), buffer containing compound was placed in the basolateral compartment (donor wells), while buffer alone was placed in the corresponding apical compartments (receiver wells). Transwells were then incubated for 2 hours at 37° C. in a 95% relative humidity and 5% CO2 atmosphere with gentle agitation. Following incubation, 100 μL was removed from each apical and basolateral compartment and transferred to 96-well low binding plates that had been previously loaded with 100 μL/well of acetonitrile containing 250 nM propranolol, 250 nM diclofenac, and 500 nM tolbutamide as internal standards. The samples were subsequently analyzed by LC-MS/MS to determine concentrations of compound.

IRAK4 = IRAK4 (Homo sapiens (Human), UniProt Q9NWZ3); test: IRAK4 Inhibition Assay; format: biochemical; settings: ATP 500 μM; IRAK4 0.6 nM; 60 min room temperature
Sequence of IRAK4 (Q9NWZ3 whole entry): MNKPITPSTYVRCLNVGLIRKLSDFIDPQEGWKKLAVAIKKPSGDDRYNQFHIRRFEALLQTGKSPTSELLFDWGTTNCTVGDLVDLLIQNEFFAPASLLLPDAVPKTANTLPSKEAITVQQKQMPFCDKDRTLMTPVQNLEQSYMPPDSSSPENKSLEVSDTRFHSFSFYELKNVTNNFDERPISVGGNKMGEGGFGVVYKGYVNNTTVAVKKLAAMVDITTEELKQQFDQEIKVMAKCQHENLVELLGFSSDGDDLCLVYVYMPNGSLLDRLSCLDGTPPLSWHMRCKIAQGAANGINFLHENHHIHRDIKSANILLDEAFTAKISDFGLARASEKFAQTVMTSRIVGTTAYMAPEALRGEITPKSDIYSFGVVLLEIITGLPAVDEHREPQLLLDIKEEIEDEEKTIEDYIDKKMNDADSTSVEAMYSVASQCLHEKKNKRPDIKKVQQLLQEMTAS
Procedure: The assays were performed in U-bottom 384-well plates. The final assay volume was 30 μL prepared from 15 μL additions of enzyme and substrates (fluoresceinated peptide and ATP) and test compounds in assay buffer (20 mM HEPES pH 7.2, 10 mM MgCl2, 0.015% Brij 35 and 4 mM DTT). The reaction was initiated by the combination of IRAK4 with substrates and test compounds. The reaction mixture was incubated at room temperature for 60 min. and terminated by adding 45 μL of 35 mM EDTA to each sample. The reaction mixture was analyzed on the Caliper LABCHIP® 3000 (Caliper, Hopkinton, Mass.) by electrophoretic separation of the fluorescent substrate and phosphorylated product. Inhibition data were calculated by comparison to no enzyme control reactions for 100% inhibition and vehicle-only reactions for 0% inhibition. The final concentrations of reagents in the assays are ATP, 500 μM; FL-IPTSPITTTYFFFKKK peptide 1.5 μM; IRAK4, 0.6 nM; and DMSO, 1.6%.

Question: What does the source list for CCCc1cn(-c2cnc(-c3cnc4cc(C#N)cnn34)cc2NC(C)C)nn1 [Example 15, 3-(4-(isopropylamino)-5-(4-propyl-1H-1,2,3-triazol-1-yl)pyridin-2-yl)imidazo[1,2-b]pyridazine-7-carbonitrile]?
Answer: EC50 (Human whole blood): 1.78 µM; Papp at 2 h, 3 μM [1]: 22.5 ×10⁻⁶ cm/s; IC50 (IRAK4): 0.006 µM

Question: With CCCn1cc(-c2cnc(-c3cnc4cc(C#N)cnn34)cc2NC2CC2)nn1 [Example 18, 3-(4-(cyclopropylamino)-5-(1-propyl-1H-1,2,3-triazol-4-yl)pyridin-2-yl)imidazo[1,2-b]pyridazine-7-carbonitrile] as the compound, how does the EC50 (Human whole blood) read?
Answer: 0.18 µM

Question: What about the Papp at 2 h, 3 μM [1] of the same compound?
Answer: 22.5 ×10⁻⁶ cm/s

Question: And the IC50 (IRAK4)?
Answer: 0.002 µM

Question: Which EC50 (Human whole blood) does the source give for CC(C)Nc1cc(-c2cnc3cc(C#N)cnn23)ncc1-n1cc(CCC(C)(C)O)nn1 [Example 22, 3-(5-(4-(3-hydroxy-3-methylbutyl)-1H-1,2,3-triazol-1-yl)-4-(isopropylamino)pyridin-2-yl)imidazo[1,2-b]pyridazine-7-carbonitrile] here?
Answer: 0.78 µM

Question: What about the Papp at 2 h, 3 μM [1] of the same compound?
Answer: 29.5 ×10⁻⁶ cm/s

Question: And the IC50 (IRAK4)?
Answer: 0.004 µM

Question: With CC(C)(O)CCc1cn(-c2cnc(-c3cnn4cc(C#N)cnc34)cc2N[C@H]2CC[C@H](F)C2)nn1 [Example 25, 3-(4-(((1S,3 S)-3-fluorocyclopentyl)amino)-5-(4-(3-hydroxy-3-methylbutyl)-1H-1,2,3-triazol-1-yl)pyridin-2-yl)pyrazolo[1,5-a]pyrimidine-6-carbonitrile] as the compound, how does the EC50 (Human whole blood) read?
Answer: 0.25 µM

Question: And the Papp at 2 h, 3 μM [1]?
Answer: 13.4 ×10⁻⁶ cm/s

Question: And the IC50 (IRAK4)?
Answer: 0.005 µM

Question: With CC(C)Nc1cc(-c2cnc3cc(C#N)cnn23)ncc1-c1cnn(CCC(C)(C)O)c1 [Example 27, 3-(5-(1-(3-hydroxy-3-methylbutyl)-1H-pyrazol-4-yl)-4-(isopropylamino)pyridin-2-yl) imidazo[1,2-b]pyridazine-7-carbonitrile] as the compound, how does the EC50 (Human whole blood) read?
Answer: 0.62 µM

Question: And the Papp at 2 h, 3 μM [1]?
Answer: 13.6 ×10⁻⁶ cm/s

Question: And the IC50 (IRAK4)?
Answer: 0.003 µM
